From patent US20240417395A1, “DUAL ANTAGONIST AND USE THEREOF” (NICOYA THERAPEUTICS (SHANGHAI) CO., LTD, priority 2021, published 2024)
Like-named read-outs stand apart in the source and are kept apart here.

Assay: Pharmacokinetic test in rats
Type: in vivo
Conditions: SD rats; for Bioavailability: PO 10 mg/kg vs IV 1 mg/kg; for in vivo exposure after oral administration (in words) / oral bioavailability versus reference compound (in words): oral gavage
Procedure: Experimental animal: SD rats, 6-8 weeks. Six animals were used for each example compound.
Drug solution formulation: all of the Experimental Example compounds were formulated into 1 mg/mL solution. The solution system was 5% DMSO+20% Solutol HS15+75%(20% HP—β-CD aqueous solution).
Grouping for administration: the first group was administered by oral gavage (PO, three SD rats, 10 mg/kg, fasted overnight before administration, and fed after 4 hours following the administration); and the second group was administered by intravenous injection in dorsum of foot (IV, three SD rats, 1 mg/kg, fed freely).
Blood sampling time and treatment method: Blood was collected via the jugular vein at the following 7 to 8 points in time: 0.083 (only in the intravenous injection group), 0.25, 0.5, 1, 2, 4, 8, and 24 hours. The blood samples were centrifuged (2000 g, 4° C., 5 min) to obtain plasma. The samples were stored at −70° C. before analysis.
Analytical instruments and conditions: LC-MS/MS-33 (Triple Quad 6500+); MS: positive, ESI; mobile phases: Mobile phase A: H2O-0.025% FA-1 mM NH4OAc, Mobile phase B: MeOH-0.025% FA-1 mM NH4OAc; flow rate: 0.60 mL/min; chromatographic column: ACQUITY UPLC-BEH C18 (2.1×50 mm, 1.7 μm); column temperature: 60° C.

Compound | AUClast (PO 10 mg/kg) [ng·h/mL] | Cmax (PO 10 mg/kg) [ng/mL] | T1/2 (PO 10 mg/kg) [h] | Tmax (PO 10 mg/kg) [h] | Bioavailability [%] | in vivo exposure after oral administration (in words) | oral bioavailability versus reference compound (in words) | AUC(0-t) (rat, plasma, PO 10 mg/kg) [ng·h/mL] | half-life (rat, plasma, PO 10 mg/kg) [h] | Bioavailability (rat, plasma, read-out: Bioavailability) [%] | Cmax (rat, plasma, PO 10 mg/kg, read-out: Cmax) [ng/mL] | Tmax (rat, plasma, PO 10 mg/kg, read-out: Tmax) [h]
CCCCC1=N[C@@]2(CC3C[C@H]3C2)C(=O)N1Cc1ccc(-c2ccccc2S(=O)(=O)Nc2noc(C)c2C)c(COCC)c1 (stereo partly shown) [Example 3] | 24407 | 2993 | 7.00 | 2.17 | 69.3 | high in vivo exposure | higher oral bioavailability |  |  |  |  | 
CCCCC1=N[C@@]2(CC3C[C@H]3C2)C(=O)N1Cc1ccc(-c2ccccc2S(=O)(=O)Nc2noc(C)c2Cl)c(COCC)c1 (stereo partly shown) [Example 7] | 23530 | 3080 | 5.28 | 3.33 | 43.4 | high in vivo exposure | higher oral bioavailability |  |  |  |  | 
CCCCC1=NC2(CCCC2)C(=O)N1Cc1ccc(-c2ccccc2S(=O)(=O)Nc2noc(C)c2C)c(COCC)c1 [Sparsentan, reference compound] |  |  |  |  |  |  |  | 18600 | 15.4 | 20.6 | 1800 | 1.42
